From US9138470B2, “Multi-component L2 vaccine for prevention of human papilloma virus infection” (The Johns Hopkins University, priority 2007, dated 2015)
Entries after “also recorded” stand apart in the source; their conditions may differ.

Experiments:
Assay type in all cases: in vivo
HPV16 pseudovirions = assay: Cutaneous HPV challenge with HPV16 pseudovirions (luciferase reporter); conditions: BALB/c mice vaccinated s.c. three times, bioluminescence 3 days post-challenge
Description: (§1) Immunization of mice. All animal experimental work was done in accordance with Johns Hopkins Medical Institutions Animal Care and Use Committee guidelines. BALB/c and C57BL/6 (NCI, Frederick, Md.) wild type or MyD88 (D. Golenbock, UMass Medical Center, […], Mass.), CD40, or MHCII deficient mice (Jackson Laboratories, Bar Harbor, Me.) were used. Mice aged 4-6 wks were immunized with P25-P2C-HPV vaccine or various controls. All vaccine and control peptides were dissolved in phosphate-buffered saline (PBS). Mice received two booster immunizations at 4 wks and 8 wks after priming immunization in the same fashion and dose. (i) subcutaneous (s.c.): Each mouse was administered 20 nmols of vaccine in a total volume of 100 μL or an equivalent amount of several control preparations at the base of the tail. (ii) intranasal (i.n.): Anesthesia induction was accomplished within 3 to 5 mins using a chamber filled with 2.5% isoflurane (Baxter, Deerfield, Ill.). While anesthetized, each mouse was administered 20 nmols of lipopeptide in a total volume of 50 μL of vaccine or an equivalent amount of several control preparations via controlled micropipetting into the nares.
(§2) Cutaneous HPV challenge. […] Equal areas encompassing the site of virus inoculation were analyzed using Living Image 2.20 software (Xenogen), and background was determined by challenge with non-infectious HPV pseudovirions lacking L2.

HPV45 pseudovirions = assay: Cutaneous HPV challenge with HPV45 pseudovirions (luciferase reporter); conditions: BALB/c mice vaccinated s.c. three times, luminescence 72 hrs post-challenge
Description: as §1, §2

HPV16 L2 17-36 = HPV16 L2 17-36 peptide ELISA of sera from immunized mice; conditions: mice vaccinated s.c. or i.n.; compared with saline controls
Description: as §1
Collection and quantification of HPV specific antibody responses. […] Presence of serum antibodies against HPV16 was assessed by enzyme-linked immunosorbent assays (ELISA). […]

**Q.** How did the “protection from cutaneous challenge with HPV16 pseudovirions” value (HPV16 pseudovirions) turn out when “HPV16 L1 VLP: virus-like particles of HPV16 major capsid protein L1, control vaccine” was run?
**A.** protected mice from cutaneous challenge

**Q.** What about the “protection from cutaneous challenge with HPV45 pseudovirions” value (HPV45 pseudovirions) of the same substance?
**A.** did not protect

**Q.** “QLYKTCKQAGTCPPDIIPKV (listed as Human papillomavirus) [HPV16 L2 17-36 peptide]” was tested. Which “L2-specific antibody (immune) response by ELISA” value (HPV16 L2 17-36) did it give?
**A.** immune responses similar to saline controls; also recorded: failed to induce an L2-specific antibody response

**Q.** And the “protection from cutaneous challenge with HPV16 pseudovirions” value (HPV16 pseudovirions)?
**A.** failed to protect the mice

**Q.** What about the “protection from cutaneous challenge with HPV45 pseudovirions” value (HPV45 pseudovirions) of the same substance?
**A.** did not protect
